Experimental data as given in paper PMC4805609, “Estrogenic Effects of Several BPA Analogs in the Developing Zebrafish Brain” (Frontiers in Neuroscience, 2016).

Key:
cyp19a1b gene = test: RT-qPCR of cyp19a1b transcripts in wild type 7-dpf larva brains; details: for fold induction at 1 µM: Danio rerio, read-out: cyp19a1b gene expression, fold induction relative to DMSO, 1 μM, 7-dpf larvae brains, six independent exposures, Figure 1B
Experimental: (§1) For subsequent RT-qPCR and in situ hybridization analysis with wild type zebrafish, groups of 80 embryos (for each condition) were placed after 1 day post-fertilization (1-dpf) in a large glass flask containing 100 ml of embryonic medium (Mouriec et al., [2009b]). […] The embryos were held in the exposure flasks until 7-dpf larva stage. […] Embryos were maintained in the exposure dishes until 4-dpf larva stage. During the treatment period, 100% of the exposure medium was renewed every 24 h (for both wild type and transgenic zebrafish).
Tissue was sonicated (10 s, 3 times) in 250 μL Trizol Reagent (Invitrogen) and RNA extractions were carried out according to the manufacturer's protocol. Reverse transcription was carried out by incubating 2μg total RNA with 1μg of random primer oligonucleotides, 2.5ṁM dNTPs, and 50 U MMLV-RT (Promega) in the appropriate buffer for 10 min at 65°C and 60 min at 37°C. Quantitative Polymerase chain reaction (qPCR) experiments were performed in an iCycler thermocycler coupled to the MyiQ detector (Bio-Rad. Hercules, CA, USA) using iQ SYBR-Green Supermix (Bio-Rad) according to the manufacturer's protocol. The following primers were used: ef1 (fw) 5′-[…]-3′; ef1 (rev) 5′-[…]-3′; cyp19a1b (AroB; fw) 5′-[…] For each condition, the RT-PCR experiment was run in triplicates. Expression levels of ef1 mRNA were used to normalize cyp19a1b expression levels. Melting curve and PCR efficiency analyses were performed to confirm correct amplification. For quantification of PCR results, the threshold cycle (Ct) was determined for each reaction. Ct values for each gene of interest were normalized with the housekeeping gene ef1, using the ΔΔCt method. Normalized values were used to calculate the degree of induction or inhibition expressed as a “fold difference” compared to normalized control values.

cyp19a1b promoter = test: EASZY assay: GFP fluorescence in brain of live cyp19a1b-GFP transgenic 4-dpf larvae; type: in vivo, zebrafish; details: 4-dpf cyp19a1b-GFP larvae, exposure 2 hpf to 4 dpf; for fold induction at 1 µM: Danio rerio, read-out: GFP fluorescence, fold induction above DMSO control
Experimental: Quantification of fluorescence in transgenic cyp19a1b-GFP zebrafish larva brain was performed according to Brion et al. ([2012]). In this assay, estrogenic activity is detected in living 4 days-old larvae (treated or not with an estrogen mimic compound) from the observation of the reporter gene fluorescence in the radial glial cells. […] All photographs were taken using the same parameters: only the head was photographed under a X10 objective, with a 134 ms exposure time and maximal intensity. Photographs were analyzed using the Axiovision Imaging software and fluorescence quantification was performed using the ImageJ software (http://rsbweb.nih.gov/ij/). For each picture, the integrated density was measured, i.e., the sum of the gray-values of all the pixels within the region of interest. A gray-value of 290 was defined as background value. For each micrograph the fluorescence fold induction of fluorescence was calculated comparing the integrated pixel density with the average fluorescence induction obtained in the control group.

cyp19a1b transcripts = test: cyp19a1b in situ hybridization on 7-dpf brain sections; type: in vivo, zebrafish; details: 1 μM, 7-dpf larvae; for distribution of cyp19a1b transcripts in the whole brain: transverse sections
Experimental: as §1
Larvae used for in situ hybridization experiments originated from the same exposition groups than RT-qPCR experiments. After exposure to the different conditions, 10 wild type 7-dpf larvae (for each treatment) were fixed overnight at 4°C in 4% paraformaldehyde, before embedding in parrafin. Serial thin transverse sections ([…]) were placed on cryofrost slides and subjected to in situ hybridization experiments. Sense and antisense digoxigenin-labeled riboprobes for the cyp19a1b gene were transcribed using the Digoxigenin RNA labeling kit in accordance with the manufacturer's instructions (Roche, Mannheim, Germany) and as previously described (Menuet et al., [2005]). The brain sections were processed for in situ hybridization using stringent conditions as previously published (D'Amico et al., [2011], [2013]). After NBT/BCIP revelation, sections were counterstained with DAPI, and mounted in a drop of vectashield (Vector Laboratories). All sections were photographed with an Olympus PROVIS AX70 microscope with a digital camera (Olympus SP71), or a Nikon multizoom AZ100 macroscope with a DS-Ri1 color camera.

zfERα = target: T1, zfERα (Danio rerio, UniProt P57717); test: cyp19a1b-luciferase reporter gene assay in U251-MG glial cells transfected with zfERα; type: cell-based, zebrafish; parameters: containing the coding regions of each zebrafish estrogen receptor cDNA; expressed in transfected cells; host or cells: human U251-MG glial cells (ER-negative); details: 10–6 M, 24 h, U251-MG cells with ERα, vs DMSO
T1 sequence (P57717 1-569): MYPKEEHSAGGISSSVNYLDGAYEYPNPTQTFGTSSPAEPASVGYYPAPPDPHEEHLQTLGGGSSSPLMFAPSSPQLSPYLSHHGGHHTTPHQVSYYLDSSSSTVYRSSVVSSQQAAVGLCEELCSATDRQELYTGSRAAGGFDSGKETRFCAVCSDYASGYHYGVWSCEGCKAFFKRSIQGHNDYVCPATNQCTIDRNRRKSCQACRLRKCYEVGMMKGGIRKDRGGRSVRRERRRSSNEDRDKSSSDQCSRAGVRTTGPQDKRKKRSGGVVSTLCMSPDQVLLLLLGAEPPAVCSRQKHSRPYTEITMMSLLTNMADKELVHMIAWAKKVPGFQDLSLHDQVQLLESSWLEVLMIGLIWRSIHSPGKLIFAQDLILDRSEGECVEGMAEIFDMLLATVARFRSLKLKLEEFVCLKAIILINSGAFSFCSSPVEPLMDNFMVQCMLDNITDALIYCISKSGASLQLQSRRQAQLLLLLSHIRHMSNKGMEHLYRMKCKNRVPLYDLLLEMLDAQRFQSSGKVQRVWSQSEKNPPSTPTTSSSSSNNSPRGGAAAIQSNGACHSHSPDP
Experimental: The medium was also supplemented with 20 U/mL penicillin, 20 μg/mL streptomycin, and 50 ng/mL amphotericin B (Gibco). For transfections, cells were plated in 24-well plates at a density of 25,000 cells/ml in the same medium, except the fetal calf serum was charcoal-treated and used at a concentration of 2.5%. Cells were transfected with 25 ng/well either the vector expression containing or not the zfERα, zfERβ1, zfERβ2 coding region and cytomegalovirus [CMV]−β-Galactosidase, and 150 ng/well of the cyp19a1b-Luciferase reporter plasmid, using JetPEI as a transfection reagent (Polyplus Transfection, Illkirch, France). […] Luciferase activity was measured 24 h later (Luciferase assay system, Promega, Madison, WI, USA). β-Galactosidase activity was used to normalize transfection efficiency. Chemicals were tested in at least 3 independent experiments and each experiment was performed in triplicate.

Row | Compound | cyp19a1b gene expression, fold induction relative to DMSO (cyp19a1b gene; 1 μM, 7-dpf larvae brains, six independent exposures, Figure 1B) | GFP fluorescence, fold induction above DMSO control (cyp19a1b promoter; 1 μM) | cyp19a1b transcripts in the nucleus recessus posterioris (nrp), caudal hypothalamus (cyp19a1b transcripts) | distribution of cyp19a1b transcripts in the whole brain (cyp19a1b transcripts) | cyp19a1b-luciferase reporter gene induction (zfERα) | fold induction at 1 µM (cyp19a1b gene) | fold induction at 1 µM (cyp19a1b promoter)
1 | CC(c1ccccc1)(c1ccc(O)cc1)c1ccc(O)cc1 [BPAP, 4,4′-(1-phenylethylidene)bisphenol] | no effect | did not affect GFP fluorescence signal | increase in cyp19a1b transcripts in the nrp region (Figure 5H) albeit to a lower levels | induces expression of cyp19a1b transcripts in only a few (xeno) estrogen-sensitive cyp19a1b expression sites | did not stimulate | – | –
2 | O=S(=O)(c1ccc(O)cc1)c1ccc(O)cc1 [BPS, bis-(4-hydroxyphenyl)sulfone] | – | – | – | identical to EE2- and BPA-treated animals | did not stimulate | ~41 | 6
3 | Oc1ccc(C(c2ccc(O)cc2)(C(F)(F)F)C(F)(F)F)cc1 [BPAF, 2,2-bis(4-hydroxylphenyl)hexafluoropropane] | – | – | – | identical to EE2- and BPA-treated animals | significant stimulation | ~43 | 14
